Results published in patent US20050239656A1, “Pyridine compounds or salts thereof and herbicides containing the same” (priority 2002, published 2005).

Legend:
rice [1] = experiment: Test Example 1: foliage treatment, upland pot test; type: in vivo, Oryza sativa L.; details: crop, active ingredient 500 g/ha, observed 18th to 23rd day, 0 = non-treated, 100 = complete kill
Summary of the method: (§1)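 Crops and weeds were sown in upland soil pots and sprayed post-emergence at set leaf stages (soybean 0.1–0.4, wheat 1.3–2.4, rice 1.2–2.6, barnyardgrass 1.3–2.8). Formulated compound was applied in 500 L/ha water with 0.1% spreader. Growth control (0–100%) was rated visually 18–23 days later.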

soybean [2] = experiment: Test Example 1: foliage treatment, upland pot test; type: in vivo, Glycine max Merr.; details: crop, active ingredient 500 g/ha, observed 18th to 23rd day, 0 = non-treated, 100 = complete kill
Summary of the method: as §1

japanese ribbon wapato = experiment: Test Example 3: paddy pot test, application under submerged conditions; type: in vivo, Sagittaria pygniaea; details: submerged application at primary leaf stage, visually observed 14 days after application, 0 = non-treated, 100 = complete kill
Summary of the method: (§2)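 Barnyardgrass and japanese bulrush sown in flooded paddy soil in greenhouse pots, japanese ribbon wapato tubers planted 1–2 days later; water depth kept at 3–4 cm. Diluted wettable powder or emulsifiable concentrate applied into water at 0.5-leaf or primary-leaf stage at set active-ingredient doses. Growth control scored visually at 14 days, 0 (untreated) to 100% (complete kill).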

prickly sida [3] = experiment: Test Example 1: foliage treatment, upland pot test; type: in vivo, Sida spinosa L.; details: active ingredient 500 g/ha, observed 18th to 23rd day, 0 = non-treated, 100 = complete kill
barnyardgrass [4] = experiment: Test Example 1: foliage treatment, upland pot test; type: in vivo, Echinochloa crus-galli L.; details: active ingredient 500 g/ha, observed 18th to 23rd day, 0 = non-treated, 100 = complete kill
Summary of the method: as §1

green foxtail [5] = experiment: Test Example 2: soil surface treatment, upland pot test; type: in vivo, Setaria viridis L.; details: observed 20th to 28th day
Summary of the method: (§3)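 Sowing, then next-day soil-surface spray of formulated test compound (fixed a.i. amount, 1,500 L/ha spray volume); visual evaluation of growth inhibition, 0–100%, three to four weeks (days 20–28) after application.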

japanese bulrush = experiment: Test Example 3: paddy pot test, application under submerged conditions; type: in vivo, Scirpus juncoides; details: submerged application at 0.5 leaf stage, visually observed 14 days after application, 0 = non-treated, 100 = complete kill
Summary of the method: as §2

barnyardgrass [6] = experiment: as above; type: in vivo, Echinochloa crus-galli L.; details: submerged application at 0.5 leaf stage, visually observed 14 days after application, 0 = non-treated, 100 = complete kill
Summary of the method: as §2

green foxtail [7] = experiment: Test Example 1: foliage treatment, upland pot test; type: in vivo, Setaria viridis L.; details: active ingredient 500 g/ha, observed 18th to 23rd day, 0 = non-treated, 100 = complete kill
barnyardgrass [8] = experiment: Test Example 2: soil surface treatment, upland pot test; type: in vivo, Echinochloa crus-galli L.; details: observed 20th to 28th day
Summary of the method: as §3

corn [9] = experiment: Test Example 1: foliage treatment, upland pot test; type: in vivo, Zea mays L.; details: crop, active ingredient 500 g/ha, observed 18th to 23rd day, 0 = non-treated, 100 = complete kill
Summary of the method: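 Corn seeds were sown in upland field soil held in a 1/170,000 ha pot and grown to the 2.1 to 3.2 leaf stage. A wettable powder or emulsifiable concentrate of the test compound was diluted with water at 500 L/ha, given 0.1% (v/v) agricultural spreader, and sprayed onto the foliage with a small sprayer. Growth controlling degree (%) was scored visually 18th to 23rd days later, from 0 (non-treated) to 100 (complete kill).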

velvetleaf [10] = experiment: Test Example 2: soil surface treatment, upland pot test; type: in vivo, Abutilon theophrasti MEDIC.; details: observed 20th to 28th day
Summary of the method: as §3

crabgrass [11] = experiment: Test Example 1: foliage treatment, upland pot test; type: in vivo, Digitaria sanguinalis L.; details: active ingredient 500 g/ha, observed 18th to 23rd day, 0 = non-treated, 100 = complete kill
rice [12] = experiment: Test Example 2: soil surface treatment, upland pot test; type: in vivo, Oryza sativa L.; details: observed 20th to 28th day
Summary of the method: as §3

soybean [13] = experiment: as above; type: in vivo, Glycine max Merr.; details: observed 20th to 28th day
Summary of the method: as §3

corn [14] = experiment: as above; type: in vivo, Zea mays L.; details: observed 20th to 28th day
Summary of the method: as §3

redroot pigweed [15] = experiment: as above; type: in vivo, Amaranthus retroflexus L.; details: observed 20th to 28th day
Summary of the method: as §3

prickly sida [16] = experiment: as above; type: in vivo, Sida spinosa L.; details: observed 20th to 28th day
Summary of the method: as §3

rice (var. Nihonbare) = experiment: Test Example 3: paddy pot test, transplanted rice; type: in vivo, Oryza sativa L.; details: applied 4th day after transplantation, visually observed 21st day after application, 0 = non-treated, 100 = complete kill
Summary of the method: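 Rice (var. Nihonbare) at 2 leaf stage transplanted 3 cm deep into puddled paddy soil under 3–4 cm flooding; on day 4 after transplanting, diluted wettable powder or emulsifiable concentrate applied by pipette under submerged conditions at a set active-ingredient dose. Growth scored visually 21 days after application, 0 (untreated) to 100 (complete kill) %.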

tall morningglory = experiment: Test Example 1: foliage treatment, upland pot test; type: in vivo, Ipomoea purpurea L.; details: active ingredient 500 g/ha, observed 18th to 23rd day, 0 = non-treated, 100 = complete kill
From the text: Upland field soil was put into a 1/170,000 ha pot, and seed of various plants were sown. Then, when the plants reached predetermined leaf stages ((1) barnyardgrass: 1.3 to 2.8 leaf stages, (2) crabgrass: 1.0 to 2.8 leaf stages, (3) green foxtail: 1.3 to 2.6 leaf stages, (4) redroot pigweed: 0.1 to 1.2 leaf stages, (5) prickly sida: 0.1 to 1.2 leaf stages, (6) velvetleaf: 0.1 to 1.2 leaf stages, (7) tall morningglory: 0.1 to 1.5 leaf stages, (8) rice: 1.2 to 2.6 leaf stages, (9) wheat: 1.3 to 2.4 leaf stages, (10) corn, 2.1 to 3.2 leaf stages, (11) soybean: 0.1 to 0.4 leaf stage), a wettable powder or emulsifiable concentrate having the compound of the present invention formulated in accordance with a usual formulation method, was weighed so that the active ingredient would be a predetermined amount, and diluted with water in an amount of 500 L/ha. To the diluted solution, 0.1% (v/v) of agricultural spreader was added. The herbicide thus adjusted was applied by a small size sprayer for foliage treatment. On the 18th to 23rd days after the application of the herbicide, the growth of the respective plants was visually observed, and the herbicidal effects were evaluated by the growth controlling degrees (%) ranging from 0 (equivalent to the non-treated plot) to 100 (complete kill), whereby the results shown in Table 3, were obtained.

redroot pigweed [17] = experiment: Test Example 1: foliage treatment, upland pot test; type: in vivo, Amaranthus retroflexus L.; details: active ingredient 500 g/ha, observed 18th to 23rd day, 0 = non-treated, 100 = complete kill
crabgrass [18] = experiment: Test Example 2: soil surface treatment, upland pot test; type: in vivo, Digitaria sanguinalis L.; details: observed 20th to 28th day
Summary of the method: as §3

wheat [19] = experiment: as above; type: in vivo, Triticum spp.; details: observed 20th to 28th day
Summary of the method: as §3

velvetleaf [20] = experiment: Test Example 1: foliage treatment, upland pot test; type: in vivo, Abutilon theophrasti MEDIC.; details: active ingredient 500 g/ha, observed 18th to 23rd day, 0 = non-treated, 100 = complete kill
wheat [21] = experiment: Test Example 1: foliage treatment, upland pot test; type: in vivo, Triticum spp.; details: crop, active ingredient 500 g/ha, observed 18th to 23rd day, 0 = non-treated, 100 = complete kill
Summary of the method: as §1

[22] = active ingredient 1000 g/ha, 0 = non-treated, 100 = complete kill

Compound	Growth controlling degree (%) Rice (rice [1]) [%]	Growth controlling degree (%) Soybean (soybean [2]) [%]	Growth controlling degree (%) Japanese ribbon wapato (japanese ribbon wapato; active ingredient 500 g/ha) [%]	Growth controlling degree (%) Prickly sida (prickly sida [3]) [%]	Growth controlling degree (%) Barnyardgrass (barnyardgrass [4]) [%]	Growth controlling degree (%) Green foxtail (green foxtail [5]; active ingredient 1000 g/ha) [%]	Growth controlling degree (%) Japanese bulrush (japanese bulrush; active ingredient 500 g/ha) [%]	Growth controlling degree (%) Barnyardgrass (barnyardgrass [6]; active ingredient 500 g/ha) [%]	Growth controlling degree (%) Green foxtail (green foxtail [7]) [%]	Growth controlling degree (%) Barnyardgrass (barnyardgrass [8]; [22]) [%]	Growth controlling degree (%) Corn (corn [9]) [%]	Growth controlling degree (%) Velvetleaf (velvetleaf [10]; active ingredient 1000 g/ha) [%]	Growth controlling degree (%) Crabgrass (crabgrass [11]) [%]	Growth controlling degree (%) Rice (rice [12]; active ingredient 1000 g/ha) [%]	Growth controlling degree (%) Soyabean (soybean [13]; active ingredient 1000 g/ha) [%]	Growth controlling degree (%) Corn (corn [14]; active ingredient 1000 g/ha) [%]	Growth controlling degree (%) Redroot pigweed (redroot pigweed [15]; active ingredient 1000 g/ha) [%]	Growth controlling degree (%) Prickly sida (prickly sida [16]; active ingredient 1000 g/ha) [%]	Growth controlling degree (%) Redroot pigweed (redroot pigweed [17]) [%]	Growth controlling degree (%) Velvetleaf (velvetleaf [20]) [%]	other results
CC(C(=O)N(C)C(c1cnccc1C(F)(F)F)C(C)C)c1ccccc1 (stereo not drawn) [I-12]	0	30	70	60	50	100	100	100	60	100	10	80	95	10	20	0	90	90	50	80	Growth controlling degree (%) Rice (rice (var. Nihonbare); active ingredient 500 g/ha): 30%; Growth controlling degree (%) Tall morningglory (tall morningglory): 70%; Growth controlling degree (%) Crabgrass (crabgrass [18]; active ingredient 1000 g/ha): 100%; Growth controlling degree (%) wheat (wheat [19]; active ingredient 1000 g/ha): 40%
CC(C)C(c1cnccc1C(F)(F)F)N(C)C(=O)Cc1c(F)cccc1F (stereo not drawn) [I-13]	20	90	90	70	80	100	95	100	80	100	70	100	80	30	20	40	90	90	80	80	Growth controlling degree (%) Rice (rice (var. Nihonbare); active ingredient 500 g/ha): 30%; Growth controlling degree (%) Tall morningglory (tall morningglory): 95%; Growth controlling degree (%) Crabgrass (crabgrass [18]; active ingredient 1000 g/ha): 100%; Growth controlling degree (%) wheat (wheat [19]; active ingredient 1000 g/ha): 98%
CC(C)C(c1cnccc1C(F)(F)F)N(C)C(=O)Cc1ccc(Cl)cc1Cl (stereo not drawn) [I-14]	20	20	30	80	50	100	98	100	60	100	40	60	70	10	0	20	85	60	80	70	Growth controlling degree (%) Rice (rice (var. Nihonbare); active ingredient 500 g/ha): 10%; Growth controlling degree (%) Tall morningglory (tall morningglory): 95%; Growth controlling degree (%) Crabgrass (crabgrass [18]; active ingredient 1000 g/ha): 100%; Growth controlling degree (%) wheat (wheat [19]; active ingredient 1000 g/ha): 30%
COCC(=O)N(C)C(c1cnccc1C(F)(F)F)C(C)C (stereo not drawn) [I-195]	70	60		70	70				60		10		80						80	60	Growth controlling degree (%) Japanese ribbon wapato (japanese ribbon wapato; active ingredient 250 g/ha): 80%; Growth controlling degree (%) Green foxtail (green foxtail [5]; active ingredient 250 g/ha): 60%; Growth controlling degree (%) Japanese bulrush (japanese bulrush; active ingredient 250 g/ha): 100%; Growth controlling degree (%) Barnyardgrass (barnyardgrass [6]; active ingredient 250 g/ha): 70%; Growth controlling degree (%) Barnyardgrass (barnyardgrass [8]; active ingredient 250 g/ha): 98%; Growth controlling degree (%) Velvetleaf (velvetleaf [10]; active ingredient 250 g/ha): 10%; Growth controlling degree (%) Rice (rice [12]; active ingredient 250 g/ha): 40%; Growth controlling degree (%) Soyabean (soybean [13]; active ingredient 250 g/ha): 10%; Growth controlling degree (%) Corn (corn [14]; active ingredient 250 g/ha): 20%; Growth controlling degree (%) Redroot pigweed (redroot pigweed [15]; active ingredient 250 g/ha): 30%; Growth controlling degree (%) Prickly sida (prickly sida [16]; active ingredient 250 g/ha): 30%; Growth controlling degree (%) Rice (rice (var. Nihonbare); active ingredient 250 g/ha): 20%; Growth controlling degree (%) wheat (wheat [21]): 30%; Growth controlling degree (%) Crabgrass (crabgrass [18]; active ingredient 250 g/ha): 98%; Growth controlling degree (%) wheat (wheat [19]; active ingredient 250 g/ha): 10%
CC(C)C(c1cnccc1C(F)(F)F)N(C)C(=O)C(Br)C(C)(C)C (stereo not drawn) [I-196]	40	40		70	60				40		10		60						50	10	Growth controlling degree (%) Japanese ribbon wapato (japanese ribbon wapato; active ingredient 250 g/ha): 50%; Growth controlling degree (%) Green foxtail (green foxtail [5]; active ingredient 250 g/ha): 95%; Growth controlling degree (%) Japanese bulrush (japanese bulrush; active ingredient 250 g/ha): 100%; Growth controlling degree (%) Barnyardgrass (barnyardgrass [6]; active ingredient 250 g/ha): 98%; Growth controlling degree (%) Barnyardgrass (barnyardgrass [8]; active ingredient 250 g/ha): 70%; Growth controlling degree (%) Velvetleaf (velvetleaf [10]; active ingredient 250 g/ha): 30%; Growth controlling degree (%) Rice (rice [12]; active ingredient 250 g/ha): 30%; Growth controlling degree (%) Soyabean (soybean [13]; active ingredient 250 g/ha): 10%; Growth controlling degree (%) Corn (corn [14]; active ingredient 250 g/ha): 30%; Growth controlling degree (%) Redroot pigweed (redroot pigweed [15]; active ingredient 250 g/ha): 60%; Growth controlling degree (%) Prickly sida (prickly sida [16]; active ingredient 250 g/ha): 60%; Growth controlling degree (%) Rice (rice (var. Nihonbare); active ingredient 250 g/ha): 10%; Growth controlling degree (%) wheat (wheat [21]): 40%; Growth controlling degree (%) Crabgrass (crabgrass [18]; active ingredient 250 g/ha): 90%; Growth controlling degree (%) wheat (wheat [19]; active ingredient 250 g/ha): 10%
